{"source": "patent US11358962B2", "about": "“2-hetaryl imidazol[1,2-a]pyridine derivatives” (Hoffmann-La Roche Inc., priority 2013, dated 2022)"}
{"system": "native tau aggregates", "experiment": "TAU radioligand in vitro displacement assay ([3H]T808, autoradiography on human AD brain sections)", "type": "binding", "conditions": "compound 10 nM, radioligand [3H]T808 10 nM", "from_the_text": "(§1) TAU Radioligand-In-Vitro Displacement Assay\n(§2) This in vitro binding assay assesses the affinity of compounds for native tau aggregates.\n(§3) AD human brains are purchased from Banner Sun Health Research Institute (Sun City, Ariz., USA). Pathological diagnosis of AD is made according to standard NIA-Reagan Institute criteria based on neuropathological data. The radioligand [^3H]T808 was synthesized in-house ([^3H]-2-[4-(2-Fluoro-ethyl)-piperidin-1-yl]-benzo[4,5]imidazo[1,2-a]pyrimidine, radiochemical purity 99.0%). As a reference cold T808 is used (2-[4-(2-Fluoro-ethyl)-piperidin-1-yl]-benzo[4,5]imidazo[1,2-a]pyrimidine). For the autoradiography FujiFilm Imaging Plates (BAS-IP TR 2025) are exposed to the sections and read with a FujiFilm IP reader (BAS-5000).\n(§4) Ten μm thick human AD brain sections are generated with a cryostat (Leica CM3050) at −17° C. chamber temperature and −15° C. object temperature. Sections are transferred to Histobond+ microscope slides (Marienfeld Laboratory Glasware). After drying for 3 hours at room temperature the sections are stored at −20° C. The sections are incubated with the radioligand (10 nM) and the respective cold compound (at various concentrations) in 50 mM Tris buffer, pH 7.4 at room temperature for 30 min. After washing 3× 10 min at 4° C. in 50 mM Tris buffer, pH 7.4 and 3 quick dips in H2O dist. at 4° C. the sections are dried at 4° C. for 3 h. The sections are placed in a FujiFilm Cassette (BAS 2025), exposed with an Imaging Plate for five days and afterwards scanned with a resolution of […].\n(§5) The signal intensity (Dens−PSL/mm2) in the region of interest (ROI) of the autoradiogram is quantified with the software MCID analysis (version 7.0, Imaging Research Inc.). The specific binding (SB) of [^3H]T808 binding in absence or in presence of a compound is calculated by subtracting the non-specific binding signal in the white matter, thus yielding SB[3H]T808 only and SBcompound. The % displacement by the various compounds is calculated as following: % displacement=100−(SBcompound/SB[3H]T808 only)*100. Validation Data\n(§6) In each experiment cold T808 is used as a positive internal control. Co-incubation of equimolar amounts of hot and cold T808 is expected to reduce specific binding by approximately 50%.", "units": {"% displacement of [3H]T808 (10 nM) at 10 nM": "%"}}
{"compound": "2-Benzo[1,3]dioxol-5-yl-7-[4-(2-fluoro-ethyl)-piperidin-1-yl]-imidazo[1,2-a]pyridine [Example 21]", "% displacement of [3H]T808 (10 nM) at 10 nM": 7}
{"compound": "COc1ccc(-c2cn3ccc(N4CC[C@H](F)C4)cc3n2)cc1", "note": "[6 (S), (S)-7-(3-Fluoropyrrolidin-1-yl)-2-(4-methoxyphenyl)imidazo[1,2-a]pyridine]", "% displacement of [3H]T808 (10 nM) at 10 nM": 8}
{"compound": "COc1ccc(-c2cn3ccc(N4CC[C@@H](F)C4)cc3n2)cc1", "note": "[7 (R), (R)-7-(3-Fluoropyrrolidin-1-yl)-2-(4-methoxyphenyl)imidazo[1,2-a]pyridine]", "% displacement of [3H]T808 (10 nM) at 10 nM": 11}
{"compound": "FCCNc1ccn2cc(-c3ccccc3)nc2c1", "note": "[Example 1, N-(2-Fluoroethyl)-2-phenylimidazo[1,2-a]pyridin-7-amine 2,2,2-trifluoroacetate]", "% displacement of [3H]T808 (10 nM) at 10 nM": 40}
{"compound": "CN(CCF)c1ccn2cc(-c3ccccc3)nc2c1", "note": "[Example 2, N-(2-Fluoroethyl)-N-methyl-2-phenylimidazo[1,2-a]pyridin-7-amine]", "% displacement of [3H]T808 (10 nM) at 10 nM": 50}
{"compound": "CN(C)c1ccn2cc(-c3ccccc3)nc2c1", "note": "[Example 3, N,N-Dimethyl-2-phenylimidazo[1,2-a]pyridin-7-amine]", "% displacement of [3H]T808 (10 nM) at 10 nM": 59}
{"compound": "CNc1ccn2cc(-c3ccccc3)nc2c1", "note": "[Example 4, N-Methyl-2-phenylimidazo[1,2-a]pyridin-7-amine]", "% displacement of [3H]T808 (10 nM) at 10 nM": 61}
{"compound": "FC1CCN(c2ccn3cc(-c4ccccc4)nc3c2)CC1", "note": "[Example 5, 7-(4-Fluoropiperidin-1-yl)-2-phenylimidazo[1,2-a]pyridine]", "% displacement of [3H]T808 (10 nM) at 10 nM": 21}
{"compound": "COc1cccc(-c2cn3ccc(N4CCCCC4)cc3n2)c1", "note": "[Example 8, 2-(3-Methoxy-phenyl)-7-piperidin-1-yl-imidazo[1,2-a]pyridine]", "% displacement of [3H]T808 (10 nM) at 10 nM": 25}
{"compound": "COc1cccc(-c2cn3ccc(N4CCCC4)cc3n2)c1", "note": "[Example 9, 2-(3-Methoxy-phenyl)-7-pyrrolidin-1-yl-imidazo[1,2-a]pyridine]", "% displacement of [3H]T808 (10 nM) at 10 nM": 33}
{"compound": "COc1cccc(-c2cn3ccc(N4CCOCC4)cc3n2)c1", "note": "[Example 10, 2-(3-Methoxy-phenyl)-7-morpholin-4-yl-imidazo[1,2-a]pyridine]", "% displacement of [3H]T808 (10 nM) at 10 nM": 27}
{"compound": "COc1ccc(-c2cn3ccc(N4CCCC4)cc3n2)cc1", "note": "[Example 11, 2-(4-Methoxy-phenyl)-7-pyrrolidin-1-yl-imidazo[1,2-a]pyridine]", "% displacement of [3H]T808 (10 nM) at 10 nM": 27}
{"compound": "COc1ccc(-c2cn3ccc(N4CCCCC4)cc3n2)cc1", "note": "[Example 12, 2-(4-Methoxy-phenyl)-7-piperidin-1-yl-imidazo[1,2-a]pyridine]", "% displacement of [3H]T808 (10 nM) at 10 nM": 30}
{"compound": "COc1ccc(-c2cn3ccc(N4CCOCC4)cc3n2)cc1", "note": "[Example 13, 2-(4-Methoxy-phenyl)-7-morpholin-4-yl-imidazo[1,2-a]pyridine]", "% displacement of [3H]T808 (10 nM) at 10 nM": 40}
{"compound": "COc1ccc(-c2cn3ccc(N4CCC(F)CC4)cc3n2)cc1", "note": "[Example 14, 7-(4-Fluoro-piperidin-1-yl)-2-(4-methoxy-phenyl)-imidazo[1,2-a]pyridine]", "% displacement of [3H]T808 (10 nM) at 10 nM": 26}
{"compound": "COc1ccc(-c2cn3ccc(N4CCN(CCF)CC4)cc3n2)cc1", "note": "[Example 15, 7-[4-(2-Fluoro-ethyl)-piperazin-1-yl]-2-(4-methoxy-phenyl)-imidazo[1,2-a]pyridine]", "% displacement of [3H]T808 (10 nM) at 10 nM": 33}
{"compound": "CN(C)c1ccc(-c2cn3ccc(N(C)C)cc3n2)cc1", "note": "[Example 16, [2-(4-Dimethylamino-phenyl)-imidazo[1,2-a]pyridin-7-yl]-dimethyl-amine]", "% displacement of [3H]T808 (10 nM) at 10 nM": 29}
{"compound": "CN(C)c1ccn2cc(-c3ccc(OCCF)cc3)nc2c1", "note": "[Example 17, {2-[4-(2-Fluoro-ethoxy)-phenyl]-imidazo[1,2-a]pyridin-7-yl}-dimethyl-amine]", "% displacement of [3H]T808 (10 nM) at 10 nM": 37}
{"compound": "CN(C)c1ccn2cc(-c3ccc(OCF)cc3)nc2c1", "note": "[Example 18, [2-(4-Fluoromethoxy-phenyl)-imidazo[1,2-a]pyridin-7-yl]-dimethyl-amine]", "% displacement of [3H]T808 (10 nM) at 10 nM": 46}
{"compound": "CNc1ccn2cc(-c3ccc4c(c3)OCCO4)nc2c1", "note": "[Example 19, [2-(2,3-Dihydro-benzo[1,4]dioxin-6-yl)-imidazo[1,2-a]pyridin-7-yl]-methyl-amine]", "% displacement of [3H]T808 (10 nM) at 10 nM": 37}
{"compound": "COc1ccc(-c2cn3ccc(N(C)C)cc3n2)cc1", "note": "[Example 20, [2-(4-Methoxy-phenyl)-imidazo[1,2-a]pyridin-7-yl]-dimethyl-amine]", "% displacement of [3H]T808 (10 nM) at 10 nM": 35}
{"compound": "CN(C)c1ccn2cc(-c3ccc4c(c3)OCCO4)nc2c1", "note": "[Example 22, [2-(2,3-Dihydro-benzo[1,4]dioxin-6-yl)-imidazo[1,2-a]pyridin-7-yl]-dimethyl-amine]", "% displacement of [3H]T808 (10 nM) at 10 nM": 39}
{"compound": "CN(CCF)c1ccn2cc(-c3ccc4c(c3)OCCO4)nc2c1", "note": "[Example 23, [2-(2,3-Dihydro-benzo[1,4]dioxin-6-yl)-imidazo[1,2-a]pyridin-7-yl]-(2-fluoro-ethyl)-methyl-amine]", "% displacement of [3H]T808 (10 nM) at 10 nM": 27}
{"compound": "COc1ccc(-c2cn3ccc(N4CCC4)cc3n2)cc1", "note": "[Example 24, 7-Azetidin-1-yl-2-(4-methoxy-phenyl)-imidazo[1,2-a]pyridine]", "% displacement of [3H]T808 (10 nM) at 10 nM": 54}
{"compound": "CNc1ccn2cc(-c3cccc(C)c3)nc2c1", "note": "[Example 25, N-Methyl-2-m-tolylimidazo[1,2-a]pyridin-7-amine]", "% displacement of [3H]T808 (10 nM) at 10 nM": 54}
{"compound": "Cc1cccc(-c2cn3ccc(N(C)C)cc3n2)c1", "note": "[Example 26, N,N-Dimethyl-(2-m-tolyl-imidazo[1,2-a]pyridin-7-yl)-amine]", "% displacement of [3H]T808 (10 nM) at 10 nM": 53}
{"compound": "Cc1ccc(-c2cn3ccc(N(C)C)cc3n2)cc1", "note": "[Example 27, N,N-Dimethyl-(2-p-tolyl-imidazo[1,2-a]pyridin-7-yl)-amine]", "% displacement of [3H]T808 (10 nM) at 10 nM": 52}
{"compound": "CNc1ccn2cc(-c3ccc(C)cc3)nc2c1", "note": "[Example 28, N-Methyl-(2-p-tolyl-imidazo[1,2-a]pyridin-7-yl)-amine]", "% displacement of [3H]T808 (10 nM) at 10 nM": 57}
{"compound": "Cc1ccc(-c2cn3ccc(N(C)CCF)cc3n2)cc1", "note": "[Example 29, N-(2-Fluoroethyl)-N-methyl-(2-p-tolyl-imidazo[1,2-a]pyridin-7-yl)-amine]", "% displacement of [3H]T808 (10 nM) at 10 nM": 38}
{"compound": "CN(C)c1ccc(-c2cn3ccc(N(C)CCF)cc3n2)cc1", "note": "[Example 30, 2-(4-(Dimethylamino)phenyl)-N-(2-fluoroethyl)-N-methylimidazo[1,2-a]pyridin-7-amine]", "% displacement of [3H]T808 (10 nM) at 10 nM": 23}
{"compound": "F[C@H]1CCN(c2ccn3cc(-c4ccccc4)nc3c2)C1", "note": "[Example 31, (S)-7-(3-Fluoropyrrolidin-1-yl)-2-phenyl-imidazo[1,2-a]pyridine]", "% displacement of [3H]T808 (10 nM) at 10 nM": 31}
{"compound": "COc1cccc(-c2cn3ccc(N(C)C)cc3n2)c1", "note": "[Example 32, [2-(3-Methoxy-phenyl)-imidazo[1,2-a]pyridin-7-yl]-dimethyl-amine]", "% displacement of [3H]T808 (10 nM) at 10 nM": 36}
{"compound": "FCCC1CCN(c2ccn3cc(-c4ccc5c(c4)OCCO5)nc3c2)CC1", "note": "[Example 33, 2-(2,3-Dihydro-benzo[1,4]dioxin-6-yl)-7-[4-(2-fluoro-ethyl)-piperidin-1-yl]-imidazo[1,2-a]pyridine]", "% displacement of [3H]T808 (10 nM) at 10 nM": 5}
{"compound": "Cc1cccc(-c2cn3ccc(N(C)CCF)cc3n2)c1", "note": "[Example 34, (2-Fluoro-ethyl)-methyl-(2-m-tolyl-imidazo[1,2-a]pyridin-7-yl)-amine]", "% displacement of [3H]T808 (10 nM) at 10 nM": 41}
{"compound": "Cc1cccc(-c2cn3ccc(N4CCOCC4)cc3n2)c1", "note": "[Example 35, 7-Morpholin-4-yl-2-m-tolyl-imidazo[1,2-a]pyridine]", "% displacement of [3H]T808 (10 nM) at 10 nM": 27}
{"compound": "Cc1ccc(-c2cn3ccc(N4CCOCC4)cc3n2)cc1", "note": "[Example 36, 7-Morpholin-4-yl-2-p-tolyl-imidazo[1,2-a]pyridine]", "% displacement of [3H]T808 (10 nM) at 10 nM": 23}
{"compound": "CNc1ccn2cc(-c3ccc4c(c3)OCO4)nc2c1", "note": "[Example 37, (2-Benzo[1,3]dioxol-5-yl-imidazo[1,2-a]pyridin-7-yl)-methyl-amine]", "% displacement of [3H]T808 (10 nM) at 10 nM": 60}
{"compound": "CN(C)c1ccn2cc(-c3ccc4c(c3)OCO4)nc2c1", "note": "[Example 38, (2-Benzo[1,3]dioxol-5-yl-imidazo[1,2-a]pyridin-7-yl)-dimethyl-amine]", "% displacement of [3H]T808 (10 nM) at 10 nM": 52}
{"compound": "CN(CCF)c1ccn2cc(-c3ccc4c(c3)OCO4)nc2c1", "note": "[Example 39, (2-Benzo[1,3]dioxol-5-yl-imidazo[1,2-a]pyridin-7-yl)-(2-fluoro-ethyl)-methyl-amine]", "% displacement of [3H]T808 (10 nM) at 10 nM": 42}
{"system": "native tau aggregates", "experiment": "TAU radioligand in vitro displacement assay ([3H]T808, autoradiography on human AD brain sections)", "type": "binding", "conditions": "compound 1 uM, radioligand [3H]T808 10 nM", "from_the_text": "as §1, §2, §3, §4, §5, §6", "units": {"% displacement of [3H]T808 (10 nM) at 1 uM": "%"}}
{"compound": "FCCNc1ccn2cc(-c3ccccc3)nc2c1", "note": "[Example 1, N-(2-Fluoroethyl)-2-phenylimidazo[1,2-a]pyridin-7-amine 2,2,2-trifluoroacetate]", "% displacement of [3H]T808 (10 nM) at 1 uM": 93}
{"compound": "CN(CCF)c1ccn2cc(-c3ccccc3)nc2c1", "note": "[Example 2, N-(2-Fluoroethyl)-N-methyl-2-phenylimidazo[1,2-a]pyridin-7-amine]", "% displacement of [3H]T808 (10 nM) at 1 uM": 90}
{"compound": "CN(C)c1ccn2cc(-c3ccccc3)nc2c1", "note": "[Example 3, N,N-Dimethyl-2-phenylimidazo[1,2-a]pyridin-7-amine]", "% displacement of [3H]T808 (10 nM) at 1 uM": 92}
{"compound": "CNc1ccn2cc(-c3ccccc3)nc2c1", "note": "[Example 4, N-Methyl-2-phenylimidazo[1,2-a]pyridin-7-amine]", "% displacement of [3H]T808 (10 nM) at 1 uM": 93}
{"compound": "FC1CCN(c2ccn3cc(-c4ccccc4)nc3c2)CC1", "note": "[Example 5, 7-(4-Fluoropiperidin-1-yl)-2-phenylimidazo[1,2-a]pyridine]", "% displacement of [3H]T808 (10 nM) at 1 uM": 82}
